Test results reported in PubChem BioAssay AID1259407 (Chemical Carcinogenesis Research Information System (CCRIS), 2018).
Calls of active or inactive are those of the source. No rule for the calls is given here.

System: CCRIS mutagenicity, Ames/micronucleus/aberration tests
Test: CCRIS mutagenicity studies
Conditions: Test System: AMES SALMONELLA TYPHIMURIUM

Row | SMILES | mutagenic call (Strain/Indicator: TA100, Metabolic Activation: NONE, Method: STANDARD PLATE) | mutagenic call (Strain/Indicator: TA100, Metabolic Activation: RAT, LIVER, S-9, KANECLOR 500, Method: STANDARD PLATE) | mutagenic call (Strain/Indicator: TA102, Metabolic Activation: NONE, Method: PREINCUBATION)
1 | O=CNc1ccc(Oc2ccc(Cl)cc2Cl)cc1 | inactive; negative | active; positive | 
2 | Cc1c(N)nc(C(CC(N)=O)NCC(N)C(N)=O)nc1C(=O)NC(C(=O)NC(C)C(O)C(C)C(=O)NC(C(=O)NCCc1nc(-c2nc(C(=O)NCCc3cnc[nH]3)cs2)cs1)C(C)O)C(OC1OC(CO)C(O)C(O)C1OC1OC(CO)C(O)C(OC(N)=O)C1O)c1cnc[nH]1 (stereo not drawn) |  |  | active; positive
